The text below walks through data of patent US7795290B2 (Genentech, Inc., priority 2004, dated 2010).

One assay deals with T1, DYRK2 (Homo sapiens, UniProt Q92630).
T1 sequence (Q92630 1-601): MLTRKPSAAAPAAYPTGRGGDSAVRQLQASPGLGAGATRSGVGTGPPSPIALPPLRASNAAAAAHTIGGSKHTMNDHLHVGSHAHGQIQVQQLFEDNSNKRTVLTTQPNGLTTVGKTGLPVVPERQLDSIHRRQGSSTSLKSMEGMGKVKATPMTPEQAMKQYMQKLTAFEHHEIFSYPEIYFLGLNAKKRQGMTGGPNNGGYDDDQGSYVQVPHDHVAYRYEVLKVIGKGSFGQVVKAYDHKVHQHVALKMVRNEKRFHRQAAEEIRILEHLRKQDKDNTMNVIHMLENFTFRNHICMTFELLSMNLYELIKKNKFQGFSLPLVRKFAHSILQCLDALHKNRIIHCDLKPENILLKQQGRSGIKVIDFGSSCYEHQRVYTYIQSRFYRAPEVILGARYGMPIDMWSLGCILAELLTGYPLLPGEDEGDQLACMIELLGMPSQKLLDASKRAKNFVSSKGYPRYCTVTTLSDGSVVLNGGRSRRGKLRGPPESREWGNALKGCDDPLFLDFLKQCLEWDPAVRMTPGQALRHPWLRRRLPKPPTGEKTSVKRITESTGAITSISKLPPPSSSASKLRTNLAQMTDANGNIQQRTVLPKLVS
The assay is described as follows: HTS ATP-utilizing enzyme assay, off-chip mobility-shift (Caliper HTS 250). The class given is biochemical. Particulars: kinase named = inhibitory activity/selectivity; test compound 10 μM; active = greater than three-sigma from mean. An excerpt: The following procedures describe the reagent and plate preparation for a HTS of an ATP-utilizing enzyme, such as a protein kinase, run in an off-chip mobility-shift assay format. The following provides an HTS protocol for running a protein kinase HTS screen on a Caliper HTS 250 microfluidics system. The following parameters are dependent on the protein kinase used and can be determined by one skilled in the art as part of a typical assay development process. For example, the peptide substrate used can be identified from the current literature, by screening a peptide library of potential protein kinase substrates, or by other applicable means accepted in the field.
Assays to determine the kinase inhibitory activity of chemical entities of the present disclosure were performed using a Caliper HTS 250 microfluidics device, Greiner U-bottom assay plates, a Multidrop for transfer of reagents, and Biomek FX (AMNCBM03) software. Initially, 2.4 μL of a 1 mM solution of a test compound in 100% DMSO was added to a well of the Greiner U-bottom plate. A single Greiner U-bottom plate having 24×16 wells could include multiple test compounds. Next, 40 μL of 1.06× Assay Buffer was added to each well of the assay plate. Using the Biomek FX, 10 μL of 0.5 M EDTA was added by the span-8 to wells, indicated as 100% Control and 2.4 μL of 100% DMSO was added by the span-8 to wells, indicated as 0% Control. Using the Multidrop, 10 μL of 2.5× Enzyme Buffer, followed by 10 μL of 2.5× Substrate Buffer was added to each well of the assay plate. The total reaction volume in each well was 25 μL, and the concentration of the test compound was 10 μM. The assay plate was incubated for 2.5 hrs at 20° C. to 22° C. After the incubation period, using the Multidrop, 45 μL of 1.55× Termination Buffer was added to each well of the assay plate to stop the reaction. The inhibition of the ATP-utilizing enzyme, such as a particular protein kinase, was determined by measuring the ratio of the peptide substrate to phosphorylated product for each well of the assay plate using the Caliper HTS 250 system.
The use of three-sigma statistical limits represents a conservative method for declaring potential hits among targets. The three-sigma activity, as well as the mean population activity, can be different for each target enzyme. This method has an expected false positive rate, from an in-control measurement process, of […].
Each chemical entity listed in Table 2 was tested for protein kinase inhibitory activity according to the biological assays and definitions of protein kinase inhibitory activity as described herein. For each exemplary compound listed in Table 2, the inhibitory activity for at least one protein kinase according to the biological assays and definitions of protein kinase inhibitory activity as described herein is indicated.
Turning to `COc1ccc(-c2csc(N(CCCN3CCOCC3)C(=O)Cc3cccc(Cl)c3)n2)cc1` [2-(3-chlorophenyl)-N-(4-(4-methoxyphenyl)thiazol-2-yl)-N-(3-morpholinopropyl)acetamide], the Activity entry is reported as “DYRK2”. As to `COCCN(C(=O)CCC(=O)O)c1nc(-c2ccc(OC)cc2)cs1` [4-((2-methoxyethyl)(4-(4-methoxyphenyl)thiazol-2-yl)amino)-4-oxobutanoic acid], the Activity result was “DYRK2”. On to `COc1ccc(-c2csc(N(CCc3ccc(OC)c(OC)c3)C(=O)CCC(=O)O)n2)cc1` [4-((3,4-dimethoxyphenethyl)(4-(4-methoxyphenyl)thiazol-2-yl)amino)-4-oxobutanoic acid], for which the Activity entry is recorded as “DYRK2”. Same read-out and setting: as for `COCCCN(C(=O)CCC(=O)O)c1nc(-c2ccc(OC)cc2)cs1` [4-((4-(4-methoxyphenyl)thiazol-2-yl)(3-methoxypropyl)amino)-4-oxobutanoic acid], the entry is “DYRK2”; as for `COc1ccc(-c2csc(N(CC3CCCO3)C(=O)CCC(=O)O)n2)cc1` (stereo not drawn) [4-((4-(4-methoxyphenyl)thiazol-2-yl)((tetrahydrofuran-2-yl)methyl)amino)-4-oxobutanoic acid], “DYRK2”. Same read-out and setting: then `COc1ccc(-c2csc(N(C)C(=O)CCC(=O)O)n2)cc1` [4-((4-(4-methoxyphenyl)thiazol-2-yl)(methyl)amino)-4-oxobutanoic acid], with “DYRK2”; and `COc1ccc(-c2csc(N(CCc3ccccc3)C(=O)CCC(=O)O)n2)cc1` [4-((4-(4-methoxyphenyl)thiazol-2-yl)(phenethyl)amino)-4-oxobutanoic acid], with “DYRK2”; and `COc1ccc(-c2csc(N(Cc3ccco3)C(=O)CCC(=O)O)n2)cc1` [4-((furan-2-ylmethyl)(4-(4-methoxyphenyl)thiazol-2-yl)amino)-4-oxobutanoic acid], with “DYRK2”.

For the compound `COc1ccc(-c2csc(N(Cc3ccccc3)C(=O)CCC(=O)O)n2)cc1` [4-(benzyl(4-(4-methoxyphenyl)thiazol-2-yl)amino)-4-oxobutanoic acid], the Activity result is “DYRK2”. The same measure, in the same setting: as for `CCN(C(=O)CCC(=O)O)c1nc(-c2ccc(OC)cc2)cs1` [4-(ethyl(4-(4-methoxyphenyl)thiazol-2-yl)amino)-4-oxobutanoic acid], the entry is “DYRK2”.

`COCCN(C(C)=O)c1nc(-c2ccc(OC)cc2)cs1` [N-(2-methoxyethyl)-N-(4-(4-methoxyphenyl)thiazol-2-yl)acetamide]: the Activity entry is reported as “DYRK2”. The same measure, in the same setting: then `CCN(CC)CCCN(C(=O)COc1ccc(C)cc1)c1nc(-c2ccc(OC)cc2)cs1` [N-(3-(diethylamino)propyl)-N-(4-(4-methoxyphenyl)thiazol-2-yl)-2-(p-tolyloxy)acetamide], with “DYRK2”.

In a further assay the target is T2, AKT1 (Homo sapiens, UniProt P31749).
T2 construct: purchased Upstate 14-276
T2 sequence (P31749 whole entry): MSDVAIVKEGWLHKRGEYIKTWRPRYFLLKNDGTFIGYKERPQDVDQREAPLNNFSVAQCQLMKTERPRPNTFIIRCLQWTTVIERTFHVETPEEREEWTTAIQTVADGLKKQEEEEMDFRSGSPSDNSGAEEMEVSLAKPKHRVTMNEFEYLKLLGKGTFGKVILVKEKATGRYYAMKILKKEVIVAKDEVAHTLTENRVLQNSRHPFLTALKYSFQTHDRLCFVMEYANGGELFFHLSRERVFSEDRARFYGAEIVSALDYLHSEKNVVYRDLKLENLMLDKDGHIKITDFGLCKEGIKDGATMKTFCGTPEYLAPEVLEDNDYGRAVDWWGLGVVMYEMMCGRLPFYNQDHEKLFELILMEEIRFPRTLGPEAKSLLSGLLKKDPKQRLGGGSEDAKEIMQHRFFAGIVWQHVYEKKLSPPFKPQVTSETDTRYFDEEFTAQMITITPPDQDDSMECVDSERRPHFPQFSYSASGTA
The description is as above. In kind it is biochemical. The settings on record: kinase named = inhibitory activity/selectivity; test compound 10 μM; active = greater than three-sigma from mean. In outline: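 AKT1 activity was measured by off-chip mobility shift (Caliper HTS 250) as the ratio of peptide substrate to phosphorylated product. Test compound was at 10 μM, with 2.5 h incubation at 20–22° C. EDTA wells served as 100% control and DMSO wells as 0%. Hits were called at three-sigma limits.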
For the compound `CCOC(=O)c1cc(-c2csc(N(CCCN3CCOCC3)C(=O)c3cccs3)n2)on1` [ethyl 5-(2-(N-(3-morpholinopropyl)thiophene-2-carboxamido)thiazol-4-yl)isoxazole-3-carboxylate], the Activity entry is reported as “AKT1”. Still for that read-out and setting: then `COC(=O)C1CCCN1C(=O)CCN(C(=O)c1cccs1)c1nc(-c2cc3ccccc3o2)cs1` (stereo not drawn) [methyl 1-(3-(N-(4-(benzofuran-2-yl)thiazol-2-yl)thiophene-2-carboxamido)propanoyl)pyrrolidine-2-carboxylate], with “AKT1”.

`COC(=O)C1CCCCN1CCCN(C(=O)c1cccs1)c1nc(-c2cc3ccccc3o2)cs1` (stereo not drawn) [methyl 1-(3-(N-(4-(benzofuran-2-yl)thiazol-2-yl)thiophene-2-carboxamido)propyl)piperidine-2-carboxylate]: the Activity result is reported as “AKT1”. On the same count and under the same terms, as for `COC(=O)C1CCCN1CCCN(C(=O)c1cccs1)c1nc(-c2cc3ccccc3o2)cs1` (stereo not drawn) [methyl 1-(3-(N-(4-(benzofuran-2-yl)thiazol-2-yl)thiophene-2-carboxamido)propyl)pyrrolidine-2-carboxylate], the entry is “AKT1”. Still for that read-out and setting: then `COC(=O)C1CCN(C(=O)CCCN(C(=O)c2cccs2)c2nc(-c3cc4ccccc4o3)cs2)CC1` [methyl 1-(4-(N-(4-(benzofuran-2-yl)thiazol-2-yl)thiophene-2-carboxamido)butanoyl)piperidine-4-carboxylate], with “AKT1”; and `COC(=O)C1CCCN1C(=O)CCCN(C(=O)c1cccs1)c1nc(-c2cc3ccccc3o2)cs1` (stereo not drawn) [methyl 1-(4-(N-(4-(benzofuran-2-yl)thiazol-2-yl)thiophene-2-carboxamido)butanoyl)pyrrolidine-2-carboxylate], with “AKT1”; and `COC(=O)CNC(=O)CCN(C(=O)c1cccs1)c1nc(-c2cc3ccccc3o2)cs1` [methyl 2-(3-(N-(4-(benzofuran-2-yl)thiazol-2-yl)thiophene-2-carboxamido)propanamido)acetate], with “AKT1”.

For `COC(=O)CNC(=O)CCCN(C(=O)c1cccs1)c1nc(-c2cc3ccccc3o2)cs1` [methyl 2-(4-(N-(4-(benzofuran-2-yl)thiazol-2-yl)thiophene-2-carboxamido)butanamido)acetate], the Activity entry is “AKT1”. The same measure, in the same setting: then `COC(=O)c1ccc(-c2csc(N(CCCN3CCOCC3)C(=O)c3cccs3)n2)cc1` [methyl 4-(2-(N-(3-morpholinopropyl)thiophene-2-carboxamido)thiazol-4-yl)benzoate], with “AKT1”; and `COC(=O)c1ccc(-c2csc(N(CCCN3CCOCC3)C(=O)c3cccs3)n2)nc1` [methyl 6-(2-(N-(3-morpholinopropyl)thiophene-2-carboxamido)thiazol-4-yl)nicotinate], with “AKT1”; and `CC(C)(C)OC(=O)NC1CCN(CCCN(C(=O)c2cccs2)c2nc(-c3cc4ccccc4o3)cs2)C1` (stereo not drawn) [tert-butyl 1-(3-(N-(4-(benzofuran-2-yl)thiazol-2-yl)thiophene-2-carboxamido)propyl)pyrrolidin-3-ylcarbamate], with “AKT1”. As to `CC(C)(C)OC(=O)NC1CCN(C(=O)CCCN(C(=O)c2cccs2)c2nc(-c3cc4ccccc4o3)cs2)C1` (stereo not drawn) [tert-butyl 1-(4-(N-(4-(benzofuran-2-yl)thiazol-2-yl)thiophene-2-carboxamido)butanoyl)pyrrolidin-3-ylcarbamate], the Activity entry is “AKT1”. With `CC(C)(C)OC(=O)NCCNC(=O)CCCN(C(=O)c1cccs1)c1nc(-c2cc3ccccc3o2)cs1` [tert-butyl 2-(4-(N-(4-(benzofuran-2-yl)thiazol-2-yl)thiophene-2-carboxamido)butanamido)ethylcarbamate], the Activity result is given as “AKT1”. On to `CC(C)(C)OC(=O)N1CCN(CCCN(C(=O)c2cccs2)c2nc(-c3cc4ccccc4o3)cs2)CC1` [tert-butyl 4-(3-(N-(4-(benzofuran-2-yl)thiazol-2-yl)thiophene-2-carboxamido)propyl)piperazine-1-carboxylate], for which the Activity result is reported as “AKT1”. For `CC(C)(C)OC(=O)N1CCN(C(=O)CCCN(C(=O)c2cccs2)c2nc(-c3cc4ccccc4o3)cs2)CC1` [tert-butyl 4-(4-(N-(4-(benzofuran-2-yl)thiazol-2-yl)thiophene-2-carboxamido)butanoyl)piperazine-1-carboxylate], the Activity result is reported as “AKT1”.
